{"source": "patent EP1029246B1", "about": "“A METHOD AND DEVICE FOR PREVENTING IMMUNOGLOBULIN DEGRADATION IN EXTERNAL SECRETIONS” (priority 1997, dated 1999)", "key": {"[1]": {"test_system": "anti-Borrelia IgM serum", "assay": "Protection of anti-Borrelia IgM in spiked feces by various substances (ELISA), Example 4", "details": "33°C for 3 hours; for ELISA OD: concentrations of all cations 0.219M, dilution in ELISA 1/3000", "method": "(§1) 25 µl of a high titred anti-Borrelia IgM serum obtained from a patient with acute Borreliosis was added to 5 tubes, each containing 50 mg of a fecal sample from a healthy volunteer. Following vortexing for 30 seconds, 500 µl of the normotonic (319 mOsm/L) solutions (i) 1 X PBS (7,7 mM Na2HPO4, 2,99 mM NaH2PO4, 145 mM NaCl), (ii) 64.5 mM zinc gluconate, (iii) 64,5 mM MgCl2, (iv) 64.5 mM magnesium gluconate or (v) 96.9 mM NaCl, the latter four all dissolved in 1/3 X PBS to obtain the same osmolarity as 1 X PBS, i.e. 319 mOsm/L was added to each of the five tubes. Following vortexing for 30 seconds, the tubes were subsequently incubated at 30°C for 5 hours. Thereafter, 250 µl of a protease inhibitor cocktail (see above) was added to each of the 5 tubes. Solid matter was suspended by vortexing for another 30 seconds followed by centrifugation at 13,000 x g for 10 min. The supernatants were stored at -70°C prior to examination or immediately tested in a commercially available anti-Borrelia IgM ELISA. For the purpose of comparison, 25 µl of the anti-Borrelia IgM serum was run in the immunoassay.\n50 milligrams of feces and 25 µl of anti-Borrelia IgM serum were incubated at 33°C for 3 hours with each of the substances described in table 2. Following incubation, the fecal samples were processed and the extracts were obtained as described in example 3."}, "[2]": {"test_system": "anti-Borrelia IgM antibodies", "assay": "Protection of anti-Borrelia IgM in spiked feces by equimolar zinc compounds (ELISA), Example 5", "details": "37°C for 4 hours, zinc concentration = 0.219M; for ELISA OD: dilution in ELISA 1/1450", "method": "50 milligrams of feces and 25 µl of anti-Borrelia IgM serum was incubated at 37°C for 4 hours with equimolar concentrations of zinc gluconate, zinc chloride and zinc acetate (zinc concentration = 0.219M)."}, "[3]": {"test_system": "anti-Borrelia IgM antibodies", "assay": "Inhibition of degradation of anti-Borrelia IgM in spiked fecal samples (anti-Borrelia IgM ELISA), Example 1", "details": "for Initial ELISA, O.D.: feces plus anti-Borrelia IgM serum plus 10% zinc gluconate, 30°C for 5 hours", "method": "In example numbers 1-5, fecal samples are spiked with a single analyte of interest, i.e. a predetermined amount of a high titered anti-Borrelia IgM serum is added to fecal samples in order to determine the extent to which the protective solution of the present invention prevents the degradation of the particular analyte added.\n(§2) 50 µl of a high titer anti-Borrelia IgM serum obtained from a patient with acute Borreliosis was added to 3 tubes each containing 50 mg of a fecal sample from a healthy volunteer. Following vortexing for 30 seconds, the tubes were incubated at 30°C for 5 hours in the presence or absence of 150 µl of 10% zinc gluconate (Gluconal® ZN-G; Glucona B.V., Veendam, The Netherlands). Following incubation, 150 µl of a protease inhibitor cocktail (0.2 mM 4-{2-aminoethyl}benzenesulfonylfluoride [Calbiochem], 1 µg of aprotinin [Sigma] per ml, 10 µM leupeptin [Sigma], and 3.25 µM bestatin [Boehringer Mannheim, Indianapolis, USA]) was added. After vortexing, the tubes were centrifuged at 13,000 x g for 10 min. The supernatants were stored at -70°C or immediately tested in a commercially available anti-Borrelia IgM ELISA (IDELA™ Borrelia burgdorferi IgM, DAKO Diagnostics Ltd., Cambridgeshire, UK). For the purpose of comparison, 50 µl of anti-Borrelia IgM serum was run in the immunoassay.\nThe results are given in figure 4, Y-axis: ELISA results (O.D. value); X-axis: F+S; feces plus anti-Borrelia IgM serum incubated at 30°C or on ice for 5 hours, F+S+ZG; feces plus anti-Borrelia IgM serum plus zinc gluconate incubated at 30°C for 5 hours. […]"}, "[4]": {"test_system": "anti-Borrelia IgM antibodies", "assay": "Long term stability of IgM antibodies extracted from spiked fecal samples, re-analysis in anti-Borrelia IgM ELISA, Example 2", "details": "extract stored at -70°C for 4 months, incubated 30°C for 5 hours", "method": "as §2\nThe fecal extracts described in Example 1 were stored at -70°C for 4 months, and then re-analyzed in the anti-Borrelia IgM ELISA to check the long term stability of the antibodies stored in the presence or absence of 10% zinc gluconate."}, "[5]": {"test_system": "anti-Borrelia IgM", "assay": "Effect of normotonic (319 mOsm/L) solutions on degradation of anti-Borrelia IgM in spiked feces, Example 3", "method": "as §1, with “immunoassay. […]” for “immunoassay.”"}, "[6]": {"test_system": "anti-CTB IgA"}}}
{"compound": "N=C(NCCCCCCNC(=N)NC(=N)Nc1ccc(Cl)cc1)NC(=N)Nc1ccc(Cl)cc1", "note": "[Chlorhexidine gluconate]", "values": [{"measurement": "ELISA OD", "setting": "[1]", "result": 0.003, "unit": "OD"}]}
{"compound": "O=C([O-])[C@H](O)[C@@H](O)[C@H](O)[C@H](O)CO.[Na+]", "note": "[Sodium gluconate]", "values": [{"measurement": "ELISA OD", "setting": "[1]", "result": 0.087, "unit": "OD"}]}
{"compound": "Copper acetate", "values": [{"measurement": "ELISA OD", "setting": "[1]", "result": 0.042, "unit": "OD"}]}
{"compound": "Copper sulphate", "values": [{"measurement": "ELISA OD", "setting": "[1]", "result": 0.018, "unit": "OD"}]}
{"compound": "Manganese chlonde", "values": [{"measurement": "ELISA OD", "setting": "[1]", "result": 0.184, "unit": "OD"}]}
{"compound": "Sodium chloride", "values": [{"measurement": "ELISA OD", "setting": "[1]", "result": 0.043, "unit": "OD"}]}
{"compound": "Zinc acetate [reference compound]", "values": [{"measurement": "ELISA OD", "setting": "[2]", "result": 0.281, "unit": "OD"}]}
{"compound": "Zinc chloride [reference compound]", "values": [{"measurement": "ELISA OD", "setting": "[2]", "result": 0.011, "unit": "OD"}]}
{"compound": "zinc gluconate", "values": [{"measurement": "inhibition of degradation of anti-Borrelia IgM antibodies (figure 4)", "setting": "[3]; 10% solution, fecal samples at 30°C for 5 hours", "result": "substantially inhibits the degradation"}, {"measurement": "Initial ELISA, O.D.", "setting": "[3]; sample dilution 1/60", "result": 2.59, "unit": "O.D."}, {"measurement": "Initial ELISA, O.D.", "setting": "[3]; sample dilution 1/180", "result": 2.57, "unit": "O.D."}, {"measurement": "Initial ELISA, O.D.", "setting": "[3]; sample dilution 1/540", "result": 2.08, "unit": "O.D."}, {"measurement": "ELISA O.D. after 4 months", "setting": "[4]; sample dilution 1/60", "result": 2.48, "unit": "O.D."}, {"measurement": "ELISA O.D. after 4 months", "setting": "[4]; sample dilution 1/180", "result": 2.40, "unit": "O.D."}, {"measurement": "ELISA O.D. after 4 months", "setting": "[4]; sample dilution 1/540", "result": 1.75, "unit": "O.D."}, {"measurement": "inhibition of degradation of anti-Borrelia IgM (Figure 5)", "setting": "[5]; 64.5 mM in 1/3 X PBS, normotonic (319 mOsm/l), 30°C for 5 hours in feces", "result": "substantially inhibits the degradation"}, {"measurement": "efficiency in conferring protection among the examined compounds (Figure 5)", "setting": "[5]; compared with normotonic PBS, MgCl2, magnesium gluconate, NaCl, 30°C for 5 hours", "result": "the most efficient"}, {"measurement": "protection among the substances tested (Table 2)", "setting": "[1]; cations 0.219M", "result": "gives the best protection"}, {"measurement": "ELISA OD", "setting": "[1]", "result": 0.360, "unit": "OD"}, {"measurement": "capacity of the IgA molecules to bind antigen (CTB)", "setting": "[6]", "result": "preserved"}, {"measurement": "inhibition of degradation of IgA (figure 6)", "setting": "[6]", "result": "significantly inhibit the degradation"}, {"measurement": "protection of anti-Borrelia IgM antibodies from degradation (Table 3)", "setting": "[2]", "result": "significantly protects"}, {"measurement": "ELISA OD", "setting": "[2]", "result": 0.910, "unit": "OD"}]}
